Data reported in patent US20060094775A1, “Remedy for corneal ulcer” (priority 2003, published 2006).
“Also recorded” adds a separate entry of the source.

How the values were obtained:
[1] = tested on: rabbit corneal stromal cells; assay: Measurement of collagen degradation activity after three-dimensional collagen gel culture (hydroxyproline per well); type: cell-based; settings: IL-1β 0.1 ng/ml, 48 hr three-dimensional culture, various concentrations
Procedure: (§1) Rabbit corneal stromal cells were prepared and cultured according to the description of Mishima et al., Invest. Ophthalmol. Vis. Sci. 28, 1521-6 (1987). The rabbits were sacrificed by overdose of sodium pentobarbital. Eyeballs were enucleated, sclera was incised to remove cornea. Stroma was separated from epithelium and endothelium. Corneal stromal cells were detached from stroma by digesting with collagenase (Collagenase from Clostridium histolyticum, Sigma (U.S.A.) #C-0130) (2 mg/ml) at 37° C. for 3-4 hr. The cells were cultured in MEM supplemented with 10% fetal bovine serum (FBS), grown in an incubator (37° C. humidity 100%) in 5% CO2 and then passaged in MEM containing 10% FBS.
Collagen gel was prepared according to the manual of Nitta gelatin. To be specific, the obtained rabbit corneal stromal cells were washed with PBS(−), 0.05% Trypsin (1 ml) was added thereto, and the mixture was left in a CO2 incubator for several min to detach the cells. […] The number of the cells was counted with Burker-Turk hemocytometer (Kayagaki Irika Kogyo). […]
After three-dimensional culture, the medium was collected and non-degraded collagen fibril having a molecular weight exceeding 100 kDa was removed by ultrafiltration. […] The amount of the hydroxyproline in the hydrolysate was measured using an Ehrlich's reagent and a spectrophotometer (Bergman et al., Anal. Chem., 35, 1961-5 (1963)). […]

[2] = tested on: proMMP-9, MMP-9, proMMP-2 and MMP-2 in rabbit corneal stromal cells; assay: Gelatin zymography of culture medium for MMP-2 and MMP-9 forms after three-dimensional culture; type: cell-based; settings: for effect on expression of MMPs and proMMPs (gelatin zymography): plasminogen addition, IL-1β 0.1 ng/ml (Example 2, FIG. 9)
Procedure: as §1
Collagen gel was prepared according to the manual of Nitta gelatin. To be specific, the obtained rabbit corneal stromal cells were washed with PBS(−), 0.05% Trypsin (1 ml) was added thereto, and the mixture was left in a CO2 incubator for several min to detach the cells. MEM (5 ml) containing 10% FBS was added to quench the trypsin reaction. The cell suspension was transferred to a 15 ml centrifuge tube, and centrifuged at 1500 rpm for 5 min. The supernatant was removed and the cells were suspended in a constant amount of serum free MEM. The number of the cells was counted with Burker-Turk hemocytometer (Kayagaki Irika Kogyo). The supernatant was removed by centrifugation at 1500 rpm for 5 min. Serum free MEM was added to give a cell suspension (2200000 cells/ml). A. acid-solubilized Type I collagen (3 mg/ml), B. 5-fold concentration of DMEM, C. reconstruction buffer (0.05N NaOH, 0.26 M NaHCO3, 0.2 M HEPES, pH 7.3) and D. a cell suspension (2.2×10^6 cells/ml) were mixed at a ratio of A:B:C:D=7:2:1:1 while cooling on ice. The collagen solution was placed in a 24 well culture plate at 0.5 ml/well, and stood in an incubator at 37° C. 5% CO2 for 0.5-5 hr. Then, 0.5 ml of serum free MEM containing IL-1β (0.1 ng/mL) and various concentrations of triptolide or dexamethasone was overlaid and cultured for 48 hr. […]

[3] = tested on: proMMPs 1 and 3 in human synovial fluid fibroblast; settings: cited from earlier work
[4] = tested on: glycosylated proMMP-1, proMMP-1, MMP-1, proMMP-3 and MMP-3 in rabbit corneal stromal cells; assay: Western blot of culture medium for MMP-1 and MMP-3 forms after three-dimensional culture; type: cell-based; settings: IL-1β addition
Procedure: as §1
Collagen gel was prepared according to the manual of Nitta gelatin. To be specific, the obtained rabbit corneal stromal cells were washed with PBS(−), 0.05% Trypsin (1 ml) was added thereto, and the mixture was left in a CO2 incubator for several min to detach the cells. MEM (5 ml) containing 10% FBS was added to quench the trypsin reaction. The cell suspension was transferred to a 15 ml centrifuge tube, and centrifuged at 1500 rpm for 5 min. The supernatant was removed and the cells were suspended in a constant amount of serum free MEM. The number of the cells was counted with Burker-Turk hemocytometer (Kayagaki Irika Kogyo). The supernatant was removed by centrifugation at 1500 rpm for 5 min. […]

[5] = tested on: TIMP-1 production (mRNA) in rabbit corneal stromal cells; assay: RT-PCR of TIMP-1 mRNA after three-dimensional culture; type: cell-based; settings: IL-1β 0.1 ng/ml; dexamethasone 1 nM, triptolide 3 μM
Procedure: as §1
Collagen gel was prepared according to the manual of Nitta gelatin. […] The number of the cells was counted with Burker-Turk hemocytometer (Kayagaki Irika Kogyo). […]
After three-dimensional culture, collagenase was added to dissolve the collagen gel, and the cells were collected. […] This cDNA, QuantiTect SYBR Green PCR Master Mix solution (QuantiTect-SYBR Green PCR kit, manufactured by Qiagen, Germany), nuclease free water and rabbit TIMP-1 primer (synthesis at Nippon Gene Institute, Han et al., Nagoya J. Med. Sci. 62, 115-126 (1999)) were mixed, and the expression amount of TIMP-1 mRNA was examined using LightCycler (manufactured by Roche Molecular Biochemicals, Germany).

SMILES	effect on IL-1β induced collagen degradation (amount of degraded collagen as hydroxyproline per well) [1]	effect on expression of MMPs and proMMPs (gelatin zymography) [2]	effect on production of proMMPs 1 and 3 [3]	effect on expression and activation of proMMPs (Western blot) ([4]; 60 mg/ml plasminogen addition)	effect on expression of proMMPs (Western blot) ([4]; plasminogen non-addition)	effect on TIMP-1 production (relative copy number of mRNA) [5]	effect on expression and activation of proMMPs (gelatin zymography) ([2]; 60 mg/ml plasminogen addition, IL-1β addition (Example 1))
CC(C)[C@]12O[C@H]1[C@@H]1O[C@@]13[C@@]1(C)CCC4=C(COC4=O)[C@@H]1C[C@@H]1O[C@@]13C2OC(=O)CCC(=O)[O-].[Na+] (stereo partly drawn) [triptolide succinate sodium salt]	suppress IL-1β induced collagen degradation in a concentration dependent manner	suppresses increase of MMP-2 and activation of MMP-9					
CC(C)[C@]12O[C@H]1[C@@H]1O[C@]13[C@]1(O[C@H]1C[C@H]1C4=C(CC[C@@]13C)C(=O)OC4)[C@@H]2O [triptolide]	suppress IL-1β induced collagen degradation in a concentration dependent manner; also recorded: suppresses IL-1β induced collagen degradation in a concentration dependent manner	suppresses increase of proMMP-2 and MMP-2, as well as activation of proMMP-9	suppresses production of proMMPs 1 and 3	suppresses increase and activation of glycosylated proMMP-1, proMMP-1 and proMMP-3	suppresses increase of glycosylated proMMP-1, proMMP-1 and proMMP-3 induced by IL-1β	does not	activation of proMMP-9
